ChEMBL document CHEMBL2074363, “Human organic anion transporters mediate the transport of tetracycline” (Jpn J Pharmacol, 2002)

How the values were obtained:
Assay type in all cases: functional, cell-based
[1] = target: T1, Solute carrier family 22 member 11 (Homo sapiens, UniProt Q9NSA0); assay: TP_TRANSPORTER: inhibition of E1S uptake (E1S: 0.05 uM, Doxycycline: 50 uM) in OAT4-expressing S2 cells; details: mouse, s2, 50 µM
T1 sequence (Q9NSA0 whole entry): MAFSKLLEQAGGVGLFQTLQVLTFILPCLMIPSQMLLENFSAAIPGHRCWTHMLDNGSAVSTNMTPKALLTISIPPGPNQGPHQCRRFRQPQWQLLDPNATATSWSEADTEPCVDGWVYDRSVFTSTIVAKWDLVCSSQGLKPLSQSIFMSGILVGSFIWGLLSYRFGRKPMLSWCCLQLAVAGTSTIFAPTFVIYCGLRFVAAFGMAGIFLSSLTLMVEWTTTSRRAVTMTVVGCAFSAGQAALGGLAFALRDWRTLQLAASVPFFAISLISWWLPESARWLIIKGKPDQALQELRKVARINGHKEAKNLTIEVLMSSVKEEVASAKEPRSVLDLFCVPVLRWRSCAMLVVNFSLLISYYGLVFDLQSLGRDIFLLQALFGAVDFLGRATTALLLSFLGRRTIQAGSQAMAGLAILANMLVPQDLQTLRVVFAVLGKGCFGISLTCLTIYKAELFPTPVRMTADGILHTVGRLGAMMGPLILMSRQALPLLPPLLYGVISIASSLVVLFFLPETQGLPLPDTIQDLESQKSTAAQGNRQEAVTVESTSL

[2] = target: T2, Organic anion transporter 3 (Homo sapiens, UniProt Q8TCC7); assay: TP_TRANSPORTER: inhibition of E1S uptake (E1S: 0.05 uM, Doxycycline: 50 uM) in OAT3-expressing S2 cells; details: s2, 50 µM
T2 sequence (Q8TCC7 whole entry): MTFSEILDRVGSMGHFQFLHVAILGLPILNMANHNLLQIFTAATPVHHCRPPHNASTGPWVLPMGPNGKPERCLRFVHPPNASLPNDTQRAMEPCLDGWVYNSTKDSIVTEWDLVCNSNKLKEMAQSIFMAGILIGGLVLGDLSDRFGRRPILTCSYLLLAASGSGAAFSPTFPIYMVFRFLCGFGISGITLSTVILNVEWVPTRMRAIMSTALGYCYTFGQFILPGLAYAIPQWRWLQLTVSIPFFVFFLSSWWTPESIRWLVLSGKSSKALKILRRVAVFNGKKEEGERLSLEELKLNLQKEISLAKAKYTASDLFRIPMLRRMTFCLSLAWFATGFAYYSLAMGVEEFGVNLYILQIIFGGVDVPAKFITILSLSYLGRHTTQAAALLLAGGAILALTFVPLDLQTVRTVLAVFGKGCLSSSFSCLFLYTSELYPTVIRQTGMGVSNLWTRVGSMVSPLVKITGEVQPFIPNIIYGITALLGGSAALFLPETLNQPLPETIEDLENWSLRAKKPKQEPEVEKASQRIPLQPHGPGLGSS

[3] = target: T3, Solute carrier family 22 member 6 (Homo sapiens, UniProt Q4U2R8); assay: TP_TRANSPORTER: inhibition of PAH uptake (PAH: 5 uM, Doxycycline: 500 uM) in OAT1-expressing S2 cells; details: s2, 500 µM
T3 sequence (Q4U2R8 whole entry): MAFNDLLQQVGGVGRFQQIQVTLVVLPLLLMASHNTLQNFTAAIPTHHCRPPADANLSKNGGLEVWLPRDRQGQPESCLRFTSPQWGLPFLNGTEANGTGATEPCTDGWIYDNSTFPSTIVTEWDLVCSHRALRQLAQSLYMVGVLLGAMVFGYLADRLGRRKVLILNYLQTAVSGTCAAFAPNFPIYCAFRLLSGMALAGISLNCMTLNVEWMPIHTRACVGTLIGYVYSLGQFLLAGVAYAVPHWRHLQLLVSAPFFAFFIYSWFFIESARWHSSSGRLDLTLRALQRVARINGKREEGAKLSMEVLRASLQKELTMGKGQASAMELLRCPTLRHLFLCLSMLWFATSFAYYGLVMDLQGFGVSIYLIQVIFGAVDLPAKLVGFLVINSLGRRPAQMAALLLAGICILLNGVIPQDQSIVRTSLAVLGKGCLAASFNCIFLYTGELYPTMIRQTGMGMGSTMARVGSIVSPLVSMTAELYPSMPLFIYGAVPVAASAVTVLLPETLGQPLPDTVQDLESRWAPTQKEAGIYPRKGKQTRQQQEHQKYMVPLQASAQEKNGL

[4] = target: T4, Solute carrier family 22 member 7 (Homo sapiens, UniProt Q9Y694); assay: TP_TRANSPORTER: inhibition of PGF2alpha uptake (PGF2alpha: 0.005 uM, Minocycline: 5 uM) in OAT2-expressing S2 cells; details: s2, 5 µM
T4 sequence (Q9Y694 whole entry): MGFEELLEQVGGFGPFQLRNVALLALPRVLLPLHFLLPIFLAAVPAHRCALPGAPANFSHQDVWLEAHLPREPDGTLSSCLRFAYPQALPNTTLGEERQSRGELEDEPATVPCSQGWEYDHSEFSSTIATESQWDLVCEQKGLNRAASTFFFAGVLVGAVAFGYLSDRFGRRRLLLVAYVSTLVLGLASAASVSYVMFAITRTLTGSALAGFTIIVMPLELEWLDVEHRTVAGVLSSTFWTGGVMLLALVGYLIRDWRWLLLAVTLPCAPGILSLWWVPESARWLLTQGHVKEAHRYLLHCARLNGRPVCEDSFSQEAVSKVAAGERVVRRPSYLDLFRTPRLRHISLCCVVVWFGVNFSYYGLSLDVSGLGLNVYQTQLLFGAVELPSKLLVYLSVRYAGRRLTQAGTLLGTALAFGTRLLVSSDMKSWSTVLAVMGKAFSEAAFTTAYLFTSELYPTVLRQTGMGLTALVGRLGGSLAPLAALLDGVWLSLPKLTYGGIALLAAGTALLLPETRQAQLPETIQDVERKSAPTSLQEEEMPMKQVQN

[5] = target: T1, Solute carrier family 22 member 11; assay: TP_TRANSPORTER: inhibition of E1S uptake (E1S: 0.05 uM, Minocycline: 50 uM) in OAT4-expressing S2 cells; details: mouse, s2, 50 µM
[6] = target: T2, Organic anion transporter 3; assay: TP_TRANSPORTER: inhibition of E1S uptake (E1S: 0.05 uM, Minocycline: 50 uM) in OAT3-expressing S2 cells; details: s2, 50 µM
[7] = target: T3, Solute carrier family 22 member 6; assay: TP_TRANSPORTER: inhibition of PAH uptake (PAH: 5 uM, Minocycline: 500 uM) in OAT1-expressing S2 cells; details: s2, 500 µM
[8] = target: T4, Solute carrier family 22 member 7; assay: TP_TRANSPORTER: inhibition of PGF2alpha uptake (PGF2alpha: 0.005 uM, Oxytetracycline: 5 uM) in OAT2-expressing S2 cells; details: s2, 5 µM
[9] = target: T1, Solute carrier family 22 member 11; assay: TP_TRANSPORTER: inhibition of E1S uptake (E1S: 0.05 uM, Oxytetracycline: 50 uM) in OAT4-expressing S2 cells; details: mouse, s2, 50 µM
[10] = target: T2, Organic anion transporter 3; assay: TP_TRANSPORTER: inhibition of E1S uptake (E1S: 0.05 uM, Oxytetracycline: 50 uM) in OAT3-expressing S2 cells; details: s2, 50 µM
[11] = target: T3, Solute carrier family 22 member 6; assay: TP_TRANSPORTER: inhibition of PAH uptake (PAH: 5 uM, Oxytetracycline: 500 uM) in OAT1-expressing S2 cells; details: mouse, s2, 500 µM
[12] = target: T4, Solute carrier family 22 member 7; assay: TP_TRANSPORTER: inhibition of PGF2alpha uptake (PGF2alpha: 0.005 uM, Tetracycline: 5 uM) in OAT2-expressing S2 cells; details: mouse, s2, 5 µM
[13] = target: T1, Solute carrier family 22 member 11; assay: TP_TRANSPORTER: inhibition of E1S uptake (E1S: 0.05 uM, Tetracycline: 50 uM) in OAT4-expressing S2 cells; details: mouse, s2, 50 µM
[14] = target: T2, Organic anion transporter 3; assay: TP_TRANSPORTER: inhibition of E1S uptake (E1S: 0.05 uM, Tetracycline: 50 uM) in OAT3-expressing S2 cells; details: mouse, s2, 50 µM
[15] = target: T3, Solute carrier family 22 member 6; assay: TP_TRANSPORTER: inhibition of PAH uptake (PAH: 5 uM, Tetracycline: 1000 uM) in OAT1-expressing S2 cells; details: s2, 1000 µM
[16] = substrate: CN(C)[C@@H]1C(O)=C(C(N)=O)C(=O)[C@@]2(O)C(O)=C3C(=O)c4c(O)cccc4[C@@](C)(O)[C@H]3C[C@@H]12; assay: TP_TRANSPORTER: uptake in OAT4-expressing S2 cells
[17] = substrate: CN(C)[C@@H]1C(O)=C(C(N)=O)C(=O)[C@@]2(O)C(O)=C3C(=O)c4c(O)cccc4[C@@](C)(O)[C@H]3C[C@@H]12; assay: TP_TRANSPORTER: uptake in OAT2-expressing S2 cells
[18] = substrate: CN(C)[C@@H]1C(O)=C(C(N)=O)C(=O)[C@@]2(O)C(O)=C3C(=O)c4c(O)cccc4[C@@](C)(O)[C@H]3C[C@@H]12; assay: TP_TRANSPORTER: uptake in OAT3-expressing S2 cells

C[C@H]1c2cccc(O)c2C(=O)C2=C(O)[C@]3(O)C(=O)C(C(N)=O)=C(O)[C@@H](N(C)C)[C@@H]3[C@@H](O)[C@@H]21.O [DOXYCYCLINE]
Activity [1]: is not an inhibitor [-]
Activity [2]: is not an inhibitor [-]
Activity [3]: inhibitor [(at a rough estimate) 25 % of control]

CN(C)c1ccc(O)c2c1C[C@H]1C[C@H]3[C@H](N(C)C)C(O)=C(C(N)=O)C(=O)[C@@]3(O)C(O)=C1C2=O [MINOCYCLINE]
Activity [4]: inhibitor [(at a rough estimate) 80 % of control]
Activity [5]: is not an inhibitor [-]
Activity [6]: is not an inhibitor [-]
Activity [7]: inhibitor [(at a rough estimate) 10 % of control]

CN(C)[C@@H]1C(O)=C(C(N)=O)C(=O)[C@@]2(O)C(O)=C3C(=O)c4c(O)cccc4[C@@](C)(O)[C@H]3[C@H](O)[C@@H]12 [OXYTETRACYCLINE]
Activity [8]: inhibitor [(at a rough estimate) 80 % of control]
Activity [9]: is not an inhibitor [-]
Activity [10]: is not an inhibitor [-]
Activity [11]: inhibitor [(at a rough estimate) 20 % of control]

CN(C)[C@@H]1C(O)=C(C(N)=O)C(=O)[C@@]2(O)C(O)=C3C(=O)c4c(O)cccc4[C@@](C)(O)[C@H]3C[C@@H]12 [TETRACYCLINE]
Activity [12]: inhibitor [(at a rough estimate) 85 % of control]
Activity [13]: inhibitor [(at a rough estimate) 75 % of control]
Activity [14]: is not an inhibitor [-]
Activity [15]: inhibitor [(at a rough estimate) 45 % of control]

B1: Solute carrier family 22 member 11 (Homo sapiens) (protein)
chain: T1 sequence (Q9NSA0 whole entry)
Km [16]: 123 µM

B2: Solute carrier family 22 member 7 (Homo sapiens) (protein)
chain: T4 sequence (Q9Y694 whole entry)
Km [17]: 440 µM

B3: Organic anion transporter 3 (Homo sapiens) (protein)
chain: T2 sequence (Q8TCC7 whole entry)
Km [18]: 566 µM
